# Experiments:
# [1] = tested on: low-density lipoprotein cholesterol (LDL-C); assay: Phase 2 study of obicetrapib and ezetimibe in mild dyslipidaemia: LDL-C by Friedewald formula; format: in vivo, human
# From the text: (§1) Study drugs will be administered by the participant orally and once daily on Days 1 through 57. Study drugs should be administered at approximately the same time each morning, with food. On days with visits scheduled, study drugs should be administered with food following all fasted blood samples. If a participant forgets to take study drug on a given day, they should take the next dose as normal and should not take a double dose to make up for the forgotten dose.
# (§2) Up to 2 weeks after the Screening Visit, participants will return to the site on Day 1 (Visit 2) to be randomized and begin treatment. Approximately 100 eligible participants (25 participants per treatment group) will be randomized in a 1:1:1:1 ratio to 1 of the following treatment groups: • Combination therapy: 5 mg obicetrapib+10 mg ezetimibe; • Obicetrapib monotherapy: 5 mg obicetrapib+placebo ezetimibe; • Ezetimibe monotherapy: placebo obicetrapib+10 mg ezetimibe; or • Placebo: placebo obicetrapib+placebo ezetimibe.
# LDL-C level was collected using the following 2 approaches: • 1. At each scheduled visit, LDL-C level was calculated using the Friedewald formula; and • 2. In addition, at baseline (Day 1) and at the end of the 8-week Treatment Period (Day 57), LDL-C was measured for all participants by preparative ultracentrifugation (PUC). Primary Efficacy Endpoint Primary analysis
# The primary efficacy analysis of the percent change from Day 1 to Day 57 in LDL-C was performed using a mixed model for repeated measures (MMRM) approach. The analysis included fixed effects for treatment, visit, and treatment-by-visit interaction, along with a covariate of the baseline value as a continuous covariate. Randomization was stratified by categories of LDL-C value (<3.5 mmol/L [<135 mg/dL] or >3.5 mmol/L [≥135 mg/dL]) only to ensure similar distribution of LDL-C across all treatment groups; however, the MMRM model included the original scale of the LDL-C value as a continuous covariate. The Restricted Maximum Likelihood estimation approach was used with an unstructured covariance matrix. The least squares (LS) means, standard errors, and 2-sided 95% confidence intervals (CIs) for each treatment group, for the pairwise comparisons of the combination therapy, obicetrapib monotherapy, and ezetimibe monotherapy to placebo, and for the pairwise comparisons of combination therapy and obicetrapib monotherapy versus ezetimibe monotherapy are provided. The treatment comparison was performed using a 2-sided test at the α=0.05 level of significance.
# (§3) Similar MMRM models were used for the exploratory efficacy endpoints. The proportion of participants at Day 57 that achieved LDL-C<2.6 mmol/L (<100 mg/dL), LDL-C<1.8 mmol/L (<70 mg/dL), and LDL-C<1.3 mmol/L (<50 mg/dL) were examined through Logistic Regression Models for binary variables with covariates of the treatment groups and the baseline variable.
# This study was a placebo-controlled, double-blind, randomized Phase 2 study in participants with mild dyslipidemia to evaluate the efficacy, safety, and tolerability of obicetrapib and ezetimibe combination therapy. The primary efficacy endpoint was percent change from Day 1 to Day 57 in LDL-C for the obicetrapib 5 mg+ezetimibe 10 mg group compared to the placebo group.
# [2] = tested on: apolipoprotein B (ApoB); assay: Phase 2 study of obicetrapib and ezetimibe in mild dyslipidaemia: ApoB; format: in vivo, human
# From the text: as §1, §2
# Similar MMRM models were developed to examine the percent change from Day 1 to Day 57 in LDL-C (for other pairwise treatment group comparisons beside the analysis specified for the primary efficacy endpoint, using the Friedewald formula) or ApoB. In order to maintain the overall Type 1 error rate, the secondary efficacy endpoints were tested sequentially at the 0.05 significance level according to the pre-specified order of hierarchy. This applied to the following analyses: • Percent change from Day 1 to Day 57 in LDL-C for the obicetrapib monotherapy group compared to the placebo group; • Percent change from Day 1 to Day 57 in ApoB for the combination therapy group compared to the placebo group; • Percent change from Day 1 to Day 57 in ApoB for the obicetrapib monotherapy group compared to the placebo group; • Percent change from Day 1 to Day 57 in LDL-C for combination therapy group compared to the ezetimibe monotherapy group; • Percent change from Day 1 to Day 57 in LDL-C for the obicetrapib monotherapy group compared to the ezetimibe monotherapy group; • Percent change from Day 1 to Day 57 in LDL-C, for the ezetimibe monotherapy group compared to the placebo group; and • Percent change from Day 1 to Day 57 in ApoB for the combination therapy group compared to the ezetimibe monotherapy group.
# [3] = tested on: non-high-density lipoprotein cholesterol (non-HDL-C); assay: Phase 2 study: non-HDL-C; format: in vivo, human; settings: Day 57
# Method: as §2, §3
# [4] = tested on: high-density lipoprotein cholesterol (HDL-C); assay: Phase 2 study: HDL-C; format: in vivo, human; settings: Day 57
# Method: as §2, §3
# [5] = tested on: apolipoprotein E (ApoE); assay: Phase 2 study: ApoE; format: in vivo, human; settings: Day 57
# Method: as §2, §3
# [6] = Phase 2 study: safety and tolerability (adverse events); format: in vivo, human
# From the text: The Safety Population included all participants who received at least 1 dose of any study drug. Treatment classification was based on the actual treatment received. The Safety Population was the primary population used for the safety analyses.
# The Safety Population was the primary population for the safety analyses. All safety endpoints are summarized descriptively. No statistical inference was applied to the safety endpoints.
# AEs were categorized by primary system organ class (SOC) and preferred term (PT) as coded using the Medical Dictionary for Regulatory Activities (version 23.0) category designations. Summaries of AEs, including the count and percentage of participants who experienced an AE, are provided.
# An overview of treatment-emergent adverse events (TEAEs) is provided, including counts and percentages of participants (and event counts).
# Listings are presented specifically for TEAEs, treatment-emergent serious adverse events (TESAEs), and TEAEs leading to discontinuation of study drug.
# [7] = Phase 2 study: pharmacokinetics of obicetrapib; format: in vivo, human; settings: by 8 weeks after long-term daily dosing
# From the text: Plasma obicetrapib concentrations will be summarized with descriptive statistics based on the PK Population. Exploration of any relationships with obicetrapib exposure will be performed, as appropriate.
# The PK Population included all participants in the mITT Population who had sufficient blood samples collected for valid estimation of PK parameters.
# [8] = tested on: LDL-C; settings: cited from earlier work
# [9] = tested on: HDL-C; settings: cited from earlier work
# [10] = molecular target: T1, CETP (Homo sapiens, UniProt P11597); settings: 5 mg obicetrapib dose; healthy subjects and patients; multiple dose; cited from earlier work
# T1 construct: from tissue; host or cells: plasma of the dosed clinical-study subjects (endogenous CETP)
# T1 sequence (P11597 18-493): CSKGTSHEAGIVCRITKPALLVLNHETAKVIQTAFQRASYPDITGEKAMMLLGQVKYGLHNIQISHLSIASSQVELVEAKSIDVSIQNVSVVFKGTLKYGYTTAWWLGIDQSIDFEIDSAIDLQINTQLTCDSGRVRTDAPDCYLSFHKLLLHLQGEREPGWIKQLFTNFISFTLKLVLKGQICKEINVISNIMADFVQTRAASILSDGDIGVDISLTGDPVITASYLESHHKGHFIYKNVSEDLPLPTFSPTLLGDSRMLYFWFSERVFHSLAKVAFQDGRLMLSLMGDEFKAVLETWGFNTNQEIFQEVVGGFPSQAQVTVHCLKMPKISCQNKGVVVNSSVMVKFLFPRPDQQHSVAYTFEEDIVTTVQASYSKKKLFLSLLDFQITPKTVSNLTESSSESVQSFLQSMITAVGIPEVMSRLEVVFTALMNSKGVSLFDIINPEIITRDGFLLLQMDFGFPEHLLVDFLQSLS
# [11] = mITT population, mild dyslipidaemia, oral once daily, Day 57
# [12] = mITT population, oral once daily, baseline to Day 57
# [13] = previous multiple-dose clinical studies, 5 mg obicetrapib dose, healthy subjects and patients
smiles,measurement,setting,value
CCOC(=O)N1c2ccc(C(F)(F)F)cc2[C@@H](N(Cc2cc(C(F)(F)F)cc(C(F)(F)F)c2)c2ncc(OCCCC(=O)O)cn2)C[C@H]1C [Obicetrapib 5 mg],Number of participants that achieved LDL-C<70 mg/dL by Friedewald formula,[1]; Day 57,7 participants
same,Number of participants that achieved LDL-C<100 mg/dL by Friedewald formula,[1]; Day 57,16 participants
same,Percentage of participants that achieved LDL-C<70 mg/dL by Friedewald formula,[1]; Day 57,25.0%
same,Percentage of participants that achieved LDL-C<100 mg/dL by Friedewald formula,[1]; Day 57,57.1%
same,"LDL-C by Friedewald formula at Day 57, mean",[1]; [11],87.0 mg/dL
same,"LDL-C by Friedewald formula at Day 57, median",[1]; [11],87.0 mg/dL
same,"Change from baseline to Day 57 in LDL-C by Friedewald formula, mean",[1]; [12],-39.5 mg/dL
same,"Change from baseline to Day 57 in LDL-C by Friedewald formula, median",[1]; [12],-41.0 mg/dL
same,"Percent change from baseline to Day 57 in LDL-C by Friedewald formula, mean",[1]; [12],−31.88%
same,"Percent change from baseline to Day 57 in LDL-C by Friedewald formula, median",[1]; [12],−34.40%
same,Percent change from baseline in ApoB compared to placebo (in words),"[2]; Day 57, compared to placebo",significant reductions
same,"ApoB at Day 57, mean",[2]; [11],78.3 mg/dL
same,"ApoB at Day 57, median",[2]; [11],75.0 mg/dL
same,"Change from baseline to Day 57 in ApoB, mean",[2]; [12],-22.6 mg/dL
same,"Change from baseline to Day 57 in ApoB, median",[2]; [12],-24.0 mg/dL
same,"Percent change from baseline to Day 57 in ApoB, mean",[2]; [12],−22.15%
same,"Percent change from baseline to Day 57 in ApoB, median",[2]; [12],−23.50%
same,Percent change from baseline in non-HDL-C compared to placebo (in words),[3],significant reductions
same,Percent change from baseline in HDL-C compared to placebo (in words),[4],significant increases
same,Percent change from baseline in ApoE compared to placebo (in words),[5],significant increases
same,Safety and tolerability (in words),"[6]; 8 weeks of treatment, oral once daily",generally safe and well tolerated
same,"Participants who experienced at least 1 TEAE, number",[6]; Safety Population,4 participants
same,"Participants who experienced at least 1 TEAE, percentage",[6]; Safety Population,14.3%
same,"Participants who experienced at least 1 study drug-related TEAE, number",[6]; Safety Population,1 participants
same,"Participants who experienced at least 1 study drug-related TEAE, percentage",[6]; Safety Population,3.6%
same,"Participants with a TEAE with a maximum severity of moderate, number",[6]; Safety Population,1 participants
same,"Participants with a TEAE with a maximum severity of moderate, percentage",[6]; Safety Population,3.6%
same,Elimination of obicetrapib (in words),[7],almost complete elimination
same,Effect on LDL cholesterol concentrations (in words),"[8]; Phase II trial TULIP, 10 mg and 5 mg obicetrapib as monotherapy",able to reduce LDL cholesterol concentrations
same,Effect on LDL-C levels (in words),[8]; [13],decreased
same,Effect on HDL cholesterol concentration (in words),"[9]; Phase II trial TULIP, mono-therapy and in combination with statins",increased considerably
same,Effect on HDL-C levels (in words),[9]; [13],increased
same,CETP activity and concentrations (in words),[10],effectively reduced
